Measurements published in ChEMBL document CHEMBL1133098, “Subtype-selective N-methyl-D-aspartate receptor antagonists: benzimidazalone and hydantoin as phenol replacements” (J Med Chem, 2000).

Tests used:
Assay type in all cases: cell-based, Oocyte
[1] = target: Glutamate NMDA receptor; Grin1/Grin2b (Rattus norvegicus, UniProt P35439+Q00960); assay: In vitro inhibition of NMDA responses at NR1A/2B receptor expressed in Xenopus oocytes
[2] = target: Glutamate receptor ionotropic, NMDA 2C (Rattus norvegicus, UniProt P35439+Q00961); assay: In vitro inhibition of NMDA responses at NR1A/2C receptor expressed in Xenopus oocytes
[3] = target: Glutamate NMDA receptor; Grin1/Grin2a (Rattus norvegicus, UniProt P35439+Q00959); assay: In vitro inhibition of NMDA responses at NR1A/2A receptor expressed in Xenopus oocytes
Glutamate NMDA receptor; Grin1/Grin2a, sequence (Q00959 whole entry, looked up, other chains not shown): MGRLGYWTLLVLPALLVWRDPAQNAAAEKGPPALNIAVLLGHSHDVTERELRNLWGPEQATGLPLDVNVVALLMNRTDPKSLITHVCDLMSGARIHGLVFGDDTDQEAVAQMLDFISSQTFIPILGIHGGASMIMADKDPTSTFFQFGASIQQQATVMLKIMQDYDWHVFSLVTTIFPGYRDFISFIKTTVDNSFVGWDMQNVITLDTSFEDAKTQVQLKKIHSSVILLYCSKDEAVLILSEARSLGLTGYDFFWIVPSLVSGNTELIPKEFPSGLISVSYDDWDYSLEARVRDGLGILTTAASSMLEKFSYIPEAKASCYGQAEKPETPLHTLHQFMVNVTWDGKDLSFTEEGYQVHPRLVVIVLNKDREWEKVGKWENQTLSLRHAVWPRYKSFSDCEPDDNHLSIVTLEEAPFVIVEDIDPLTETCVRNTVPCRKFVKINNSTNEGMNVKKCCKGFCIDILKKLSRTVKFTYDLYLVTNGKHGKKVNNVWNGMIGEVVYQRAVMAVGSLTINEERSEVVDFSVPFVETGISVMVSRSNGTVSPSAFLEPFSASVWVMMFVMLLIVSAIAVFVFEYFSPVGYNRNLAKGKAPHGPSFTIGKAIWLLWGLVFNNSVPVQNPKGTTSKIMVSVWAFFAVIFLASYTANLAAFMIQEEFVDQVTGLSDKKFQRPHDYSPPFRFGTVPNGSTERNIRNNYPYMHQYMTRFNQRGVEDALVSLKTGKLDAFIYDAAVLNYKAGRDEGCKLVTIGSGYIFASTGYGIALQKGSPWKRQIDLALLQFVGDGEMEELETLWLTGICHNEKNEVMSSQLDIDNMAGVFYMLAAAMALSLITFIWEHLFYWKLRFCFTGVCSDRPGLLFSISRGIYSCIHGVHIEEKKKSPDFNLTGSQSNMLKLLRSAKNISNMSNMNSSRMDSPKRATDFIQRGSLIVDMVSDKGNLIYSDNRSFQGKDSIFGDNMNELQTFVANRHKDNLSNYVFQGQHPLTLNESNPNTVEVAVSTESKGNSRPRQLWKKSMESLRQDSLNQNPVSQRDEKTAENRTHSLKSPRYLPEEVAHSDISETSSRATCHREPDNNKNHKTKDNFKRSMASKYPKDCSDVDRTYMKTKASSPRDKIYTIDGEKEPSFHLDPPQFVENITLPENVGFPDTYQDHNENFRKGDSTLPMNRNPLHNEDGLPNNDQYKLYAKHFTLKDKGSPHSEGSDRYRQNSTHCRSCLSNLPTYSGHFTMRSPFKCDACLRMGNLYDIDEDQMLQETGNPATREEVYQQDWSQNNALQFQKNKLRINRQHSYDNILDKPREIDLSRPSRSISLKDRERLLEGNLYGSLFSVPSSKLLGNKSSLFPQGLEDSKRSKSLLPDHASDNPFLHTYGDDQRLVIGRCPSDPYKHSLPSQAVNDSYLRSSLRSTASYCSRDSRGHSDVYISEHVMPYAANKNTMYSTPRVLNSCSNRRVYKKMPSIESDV

Glutamate NMDA receptor; Grin1/Grin2b, sequence (Q00960 whole entry, looked up, other chains not shown): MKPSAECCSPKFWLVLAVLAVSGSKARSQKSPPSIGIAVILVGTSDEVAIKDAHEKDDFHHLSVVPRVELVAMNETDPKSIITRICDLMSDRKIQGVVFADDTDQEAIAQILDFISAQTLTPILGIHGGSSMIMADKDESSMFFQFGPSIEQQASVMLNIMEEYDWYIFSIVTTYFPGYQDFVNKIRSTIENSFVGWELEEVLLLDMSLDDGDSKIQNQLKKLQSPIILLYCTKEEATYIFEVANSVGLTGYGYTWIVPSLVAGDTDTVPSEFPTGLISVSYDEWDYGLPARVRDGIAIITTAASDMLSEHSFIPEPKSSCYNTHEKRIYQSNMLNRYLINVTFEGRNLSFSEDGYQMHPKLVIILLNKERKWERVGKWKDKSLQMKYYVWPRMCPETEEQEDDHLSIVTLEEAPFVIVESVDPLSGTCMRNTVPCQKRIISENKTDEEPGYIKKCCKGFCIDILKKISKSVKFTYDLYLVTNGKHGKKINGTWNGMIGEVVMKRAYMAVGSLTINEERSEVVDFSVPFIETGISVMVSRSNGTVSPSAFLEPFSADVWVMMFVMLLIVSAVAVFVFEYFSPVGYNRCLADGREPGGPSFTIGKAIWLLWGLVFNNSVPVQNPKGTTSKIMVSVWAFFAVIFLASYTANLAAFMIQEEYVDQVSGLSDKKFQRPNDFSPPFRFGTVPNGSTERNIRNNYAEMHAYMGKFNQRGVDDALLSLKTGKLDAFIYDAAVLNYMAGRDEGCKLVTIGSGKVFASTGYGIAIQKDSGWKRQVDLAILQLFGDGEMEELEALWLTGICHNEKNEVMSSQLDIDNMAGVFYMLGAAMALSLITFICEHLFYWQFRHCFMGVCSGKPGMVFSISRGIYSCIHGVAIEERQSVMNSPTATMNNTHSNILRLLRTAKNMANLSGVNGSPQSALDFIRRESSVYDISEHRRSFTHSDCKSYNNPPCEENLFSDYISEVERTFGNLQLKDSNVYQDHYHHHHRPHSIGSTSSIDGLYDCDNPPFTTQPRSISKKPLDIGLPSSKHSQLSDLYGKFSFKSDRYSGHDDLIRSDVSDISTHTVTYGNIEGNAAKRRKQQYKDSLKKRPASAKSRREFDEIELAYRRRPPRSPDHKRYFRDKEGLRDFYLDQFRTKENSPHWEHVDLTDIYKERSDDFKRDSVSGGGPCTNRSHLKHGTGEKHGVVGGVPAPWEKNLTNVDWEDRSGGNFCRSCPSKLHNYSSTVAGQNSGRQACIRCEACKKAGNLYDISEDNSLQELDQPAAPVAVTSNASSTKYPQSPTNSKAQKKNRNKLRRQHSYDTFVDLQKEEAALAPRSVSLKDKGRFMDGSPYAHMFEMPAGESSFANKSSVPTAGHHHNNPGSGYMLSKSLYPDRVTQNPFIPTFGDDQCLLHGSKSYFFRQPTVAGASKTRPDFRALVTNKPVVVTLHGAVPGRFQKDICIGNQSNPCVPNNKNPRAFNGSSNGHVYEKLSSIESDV
Glutamate receptor ionotropic, NMDA 2C, sequence (Q00961 whole entry, one chain of several): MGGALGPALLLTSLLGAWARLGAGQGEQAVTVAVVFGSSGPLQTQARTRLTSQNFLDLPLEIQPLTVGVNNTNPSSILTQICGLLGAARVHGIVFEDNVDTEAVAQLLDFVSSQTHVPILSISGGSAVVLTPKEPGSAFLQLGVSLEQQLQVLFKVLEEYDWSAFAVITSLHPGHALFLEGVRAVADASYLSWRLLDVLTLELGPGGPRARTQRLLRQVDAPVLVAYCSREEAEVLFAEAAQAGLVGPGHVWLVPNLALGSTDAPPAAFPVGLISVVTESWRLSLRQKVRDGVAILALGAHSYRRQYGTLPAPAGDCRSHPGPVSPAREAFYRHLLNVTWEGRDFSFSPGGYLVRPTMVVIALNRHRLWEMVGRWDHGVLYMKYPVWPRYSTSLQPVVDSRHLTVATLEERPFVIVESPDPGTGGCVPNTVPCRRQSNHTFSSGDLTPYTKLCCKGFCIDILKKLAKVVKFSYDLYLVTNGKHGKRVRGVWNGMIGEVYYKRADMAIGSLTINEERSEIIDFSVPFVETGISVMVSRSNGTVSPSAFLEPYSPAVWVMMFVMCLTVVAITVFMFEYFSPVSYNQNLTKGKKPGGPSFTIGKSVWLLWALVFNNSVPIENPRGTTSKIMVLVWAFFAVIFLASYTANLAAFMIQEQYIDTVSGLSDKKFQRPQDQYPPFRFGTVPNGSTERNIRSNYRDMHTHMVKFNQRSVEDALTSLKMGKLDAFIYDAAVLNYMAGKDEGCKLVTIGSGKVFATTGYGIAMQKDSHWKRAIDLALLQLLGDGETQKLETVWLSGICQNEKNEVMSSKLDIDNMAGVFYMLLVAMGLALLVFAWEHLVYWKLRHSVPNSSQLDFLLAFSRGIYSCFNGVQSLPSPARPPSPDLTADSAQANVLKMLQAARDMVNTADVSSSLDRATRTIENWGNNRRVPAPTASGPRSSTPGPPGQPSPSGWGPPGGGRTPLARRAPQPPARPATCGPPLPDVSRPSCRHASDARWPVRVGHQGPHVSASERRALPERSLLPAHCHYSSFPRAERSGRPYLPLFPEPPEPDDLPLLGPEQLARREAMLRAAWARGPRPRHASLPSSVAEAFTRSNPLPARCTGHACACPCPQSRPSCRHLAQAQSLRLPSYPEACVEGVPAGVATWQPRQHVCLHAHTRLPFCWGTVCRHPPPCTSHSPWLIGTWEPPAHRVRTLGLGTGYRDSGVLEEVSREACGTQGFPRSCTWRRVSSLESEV

Compound	IC50 [1]	IC50 [2]	IC50 [3]
O=c1[nH]c2ccccc2n1CCCN1CCC(Cc2ccc(F)cc2)CC1	0.11 µM	> 100 µM	> 100 µM
O=C1CNC(=O)N1CCCCCN1CCC(Cc2ccccc2)CC1	49 µM	> 100 µM	88 µM
O=C1CNC(=O)N1CCCN1CCC(Cc2ccccc2)CC1	27 µM	> 100 µM	> 100 µM
O=C1CNC(=O)N1CCCCN1CCC(Cc2ccccc2)CC1	10 µM	> 100 µM	> 100 µM
Oc1ccc(OCCN2CCC(Cc3ccccc3)CC2)cc1	–	> 100 µM	> 100 µM

Continued, values first:

IC50 [1]	IC50 [2]	IC50 [3]	Compound
3.4 µM	> 100 µM	> 100 µM	Oc1nc2ccccc2n1CCCCN1CCC(Cc2ccccc2)CC1
11 µM	> 100 µM	> 100 µM	O=c1[nH]c2ccccc2n1CCCCCN1CCC(Cc2ccccc2)CC1
0.095 µM	> 100 µM	> 100 µM	O=c1[nH]c2ccccc2n1CCCN1CCC(Cc2ccccc2)CC1
